Data: patent US20140120232A1, “ACID TASTE/ACID SMELL-REDUCING AGENT” (T. HASEGAWA CO., LTD., priority 2011, published 2014)

Test: Sensory evaluation of Vermont drink containing the agent
Conditions: ten panels
Protocol: Water was added to a mixture of 10 g of apple-cider vinegar (acetic acid: 4.8%), 3 g of honey, 7 g of fructose-glucose liquid sugar mixed with sugar, 0.02 g of citric acid, 0.002 g of trisodium citrate, and 0.1 g of a Vermont flavor (manufactured by T. Hasegawa Co., Ltd.) to give a total amount of 100 mL. To the resulting mixture was added (Z,Z)-4,7-tridecadienal as the acid taste and/or acid smell-reducing agent of the present invention in concentrations shown in the following Table 1 to give Vermont drinks containing the agent.
Sensory evaluation of each drink was carried out by ten panels. […] The piercing aroma characteristic to aldehydes is a characteristic aroma common to every aldehyde and refers to an irritant off-smell giving an image of deteriorated oils and fats, soap, metals, Houttuynia cordata, etc. The judgment of smell was performed by comparing the effects at different concentrations of the acid taste and/or acid smell-reducing agent, and a concentration giving the highest acid taste/acid smell quality was selected. […]

Compound: CCCCC/C=C/C/C=C/C=C/C=O [(E,E,E)-2,4,7-tridecatrienal]
- A: number of panels, acid taste/acid smell extreme and cause irritation (0.005 ppt): 10
- B: number of panels, acid taste/acid smell slightly strong and slightly cause irritation (0.005 ppt): 0
- C: number of panels, acid taste/acid smell slightly unpleasant (0.005 ppt): 0
- Flavor judgment: number of panels who judged acid taste/acid smell quality the highest (0.005 ppt): 0
- N: number of panels, irritation of acid reduced to give a mild acid taste (0.005 ppt): 0
- X: number of panels, acid taste reduced but piercing odor characteristic to aldehydes unpleasant (0.005 ppt): 0
- A: number of panels, acid taste/acid smell extreme and cause irritation (0.02 ppt): 10
- B: number of panels, acid taste/acid smell slightly strong and slightly cause irritation (0.02 ppt): 0
- C: number of panels, acid taste/acid smell slightly unpleasant (0.02 ppt): 0
- Flavor judgment: number of panels who judged acid taste/acid smell quality the highest (0.02 ppt): 0
- N: number of panels, irritation of acid reduced to give a mild acid taste (0.02 ppt): 0
- X: number of panels, acid taste reduced but piercing odor characteristic to aldehydes unpleasant (0.02 ppt): 0
- A: number of panels, acid taste/acid smell extreme and cause irritation (0.1 ppt): 10
- B: number of panels, acid taste/acid smell slightly strong and slightly cause irritation (0.1 ppt): 0
- C: number of panels, acid taste/acid smell slightly unpleasant (0.1 ppt): 0
- Flavor judgment: number of panels who judged acid taste/acid smell quality the highest (0.1 ppt): 0
- N: number of panels, irritation of acid reduced to give a mild acid taste (0.1 ppt): 0
- X: number of panels, acid taste reduced but piercing odor characteristic to aldehydes unpleasant (0.1 ppt): 0
- A: number of panels, acid taste/acid smell extreme and cause irritation (0.2 ppt): 9
- B: number of panels, acid taste/acid smell slightly strong and slightly cause irritation (0.2 ppt): 1
- C: number of panels, acid taste/acid smell slightly unpleasant (0.2 ppt): 0
- Flavor judgment: number of panels who judged acid taste/acid smell quality the highest (0.2 ppt): 0
- N: number of panels, irritation of acid reduced to give a mild acid taste (0.2 ppt): 0
- X: number of panels, acid taste reduced but piercing odor characteristic to aldehydes unpleasant (0.2 ppt): 0
- A: number of panels, acid taste/acid smell extreme and cause irritation (0.5 ppt): 7
- B: number of panels, acid taste/acid smell slightly strong and slightly cause irritation (0.5 ppt): 1
- C: number of panels, acid taste/acid smell slightly unpleasant (0.5 ppt): 2
- Flavor judgment: number of panels who judged acid taste/acid smell quality the highest (0.5 ppt): 0
- N: number of panels, irritation of acid reduced to give a mild acid taste (0.5 ppt): 0
- X: number of panels, acid taste reduced but piercing odor characteristic to aldehydes unpleasant (0.5 ppt): 0
- A: number of panels, acid taste/acid smell extreme and cause irritation (1 ppb): 0
- B: number of panels, acid taste/acid smell slightly strong and slightly cause irritation (1 ppb): 0
- C: number of panels, acid taste/acid smell slightly unpleasant (1 ppb): 2
- Flavor judgment: number of panels who judged acid taste/acid smell quality the highest (1 ppb): 0
- N: number of panels, irritation of acid reduced to give a mild acid taste (1 ppb): 4
- X: number of panels, acid taste reduced but piercing odor characteristic to aldehydes unpleasant (1 ppb): 4
- A: number of panels, acid taste/acid smell extreme and cause irritation (1 ppt): 0
- B: number of panels, acid taste/acid smell slightly strong and slightly cause irritation (1 ppt): 7
- C: number of panels, acid taste/acid smell slightly unpleasant (1 ppt): 3
- Flavor judgment: number of panels who judged acid taste/acid smell quality the highest (1 ppt): 0
- N: number of panels, irritation of acid reduced to give a mild acid taste (1 ppt): 1
- X: number of panels, acid taste reduced but piercing odor characteristic to aldehydes unpleasant (1 ppt): 0
- A: number of panels, acid taste/acid smell extreme and cause irritation (5 ppt): 0
- B: number of panels, acid taste/acid smell slightly strong and slightly cause irritation (5 ppt): 2
- C: number of panels, acid taste/acid smell slightly unpleasant (5 ppt): 3
- Flavor judgment: number of panels who judged acid taste/acid smell quality the highest (5 ppt): 2
- N: number of panels, irritation of acid reduced to give a mild acid taste (5 ppt): 5
- X: number of panels, acid taste reduced but piercing odor characteristic to aldehydes unpleasant (5 ppt): 0
- A: number of panels, acid taste/acid smell extreme and cause irritation (10 ppb): 0
- B: number of panels, acid taste/acid smell slightly strong and slightly cause irritation (10 ppb): 0
- C: number of panels, acid taste/acid smell slightly unpleasant (10 ppb): 2
- Flavor judgment: number of panels who judged acid taste/acid smell quality the highest (10 ppb): 0
- N: number of panels, irritation of acid reduced to give a mild acid taste (10 ppb): 2
- X: number of panels, acid taste reduced but piercing odor characteristic to aldehydes unpleasant (10 ppb): 6
- A: number of panels, acid taste/acid smell extreme and cause irritation (20 ppt): 0
- B: number of panels, acid taste/acid smell slightly strong and slightly cause irritation (20 ppt): 1
- C: number of panels, acid taste/acid smell slightly unpleasant (20 ppt): 3
- Flavor judgment: number of panels who judged acid taste/acid smell quality the highest (20 ppt): 5
- N: number of panels, irritation of acid reduced to give a mild acid taste (20 ppt): 6
- X: number of panels, acid taste reduced but piercing odor characteristic to aldehydes unpleasant (20 ppt): 0
- A: number of panels, acid taste/acid smell extreme and cause irritation (50 ppb): 0
- B: number of panels, acid taste/acid smell slightly strong and slightly cause irritation (50 ppb): 0
- C: number of panels, acid taste/acid smell slightly unpleasant (50 ppb): 0
- Flavor judgment: number of panels who judged acid taste/acid smell quality the highest (50 ppb): 0
- N: number of panels, irritation of acid reduced to give a mild acid taste (50 ppb): 3
- X: number of panels, acid taste reduced but piercing odor characteristic to aldehydes unpleasant (50 ppb): 7
- A: number of panels, acid taste/acid smell extreme and cause irritation (100 ppt): 0
- B: number of panels, acid taste/acid smell slightly strong and slightly cause irritation (100 ppt): 2
- C: number of panels, acid taste/acid smell slightly unpleasant (100 ppt): 2
- Flavor judgment: number of panels who judged acid taste/acid smell quality the highest (100 ppt): 3
- N: number of panels, irritation of acid reduced to give a mild acid taste (100 ppt): 6
- X: number of panels, acid taste reduced but piercing odor characteristic to aldehydes unpleasant (100 ppt): 0
- A: number of panels, acid taste/acid smell extreme and cause irritation (500 ppt): 0
- B: number of panels, acid taste/acid smell slightly strong and slightly cause irritation (500 ppt): 0
- C: number of panels, acid taste/acid smell slightly unpleasant (500 ppt): 4
- Flavor judgment: number of panels who judged acid taste/acid smell quality the highest (500 ppt): 0
- N: number of panels, irritation of acid reduced to give a mild acid taste (500 ppt): 4
- X: number of panels, acid taste reduced but piercing odor characteristic to aldehydes unpleasant (500 ppt): 2

Compound: CCCCC/C=C\C/C=C/CCC=O [(E,Z)-4,7-tridecadienal]
- A: number of panels, acid taste/acid smell extreme and cause irritation (0.005 ppt): 10
- B: number of panels, acid taste/acid smell slightly strong and slightly cause irritation (0.005 ppt): 0
- C: number of panels, acid taste/acid smell slightly unpleasant (0.005 ppt): 0
- Flavor judgment: number of panels who judged acid taste/acid smell quality the highest (0.005 ppt): 0
- N: number of panels, irritation of acid reduced to give a mild acid taste (0.005 ppt): 0
- X: number of panels, acid taste reduced but piercing odor characteristic to aldehydes unpleasant (0.005 ppt): 0
- A: number of panels, acid taste/acid smell extreme and cause irritation (0.02 ppt): 10
- B: number of panels, acid taste/acid smell slightly strong and slightly cause irritation (0.02 ppt): 0
- C: number of panels, acid taste/acid smell slightly unpleasant (0.02 ppt): 0
- Flavor judgment: number of panels who judged acid taste/acid smell quality the highest (0.02 ppt): 0
- N: number of panels, irritation of acid reduced to give a mild acid taste (0.02 ppt): 0
- X: number of panels, acid taste reduced but piercing odor characteristic to aldehydes unpleasant (0.02 ppt): 0
- A: number of panels, acid taste/acid smell extreme and cause irritation (0.1 ppt): 10
- B: number of panels, acid taste/acid smell slightly strong and slightly cause irritation (0.1 ppt): 0
- C: number of panels, acid taste/acid smell slightly unpleasant (0.1 ppt): 0
- Flavor judgment: number of panels who judged acid taste/acid smell quality the highest (0.1 ppt): 0
- N: number of panels, irritation of acid reduced to give a mild acid taste (0.1 ppt): 0
- X: number of panels, acid taste reduced but piercing odor characteristic to aldehydes unpleasant (0.1 ppt): 0
- A: number of panels, acid taste/acid smell extreme and cause irritation (0.2 ppt): 8
- B: number of panels, acid taste/acid smell slightly strong and slightly cause irritation (0.2 ppt): 2
- C: number of panels, acid taste/acid smell slightly unpleasant (0.2 ppt): 0
- Flavor judgment: number of panels who judged acid taste/acid smell quality the highest (0.2 ppt): 0
- N: number of panels, irritation of acid reduced to give a mild acid taste (0.2 ppt): 0
- X: number of panels, acid taste reduced but piercing odor characteristic to aldehydes unpleasant (0.2 ppt): 0
- A: number of panels, acid taste/acid smell extreme and cause irritation (0.5 ppt): 6
- B: number of panels, acid taste/acid smell slightly strong and slightly cause irritation (0.5 ppt): 3
- C: number of panels, acid taste/acid smell slightly unpleasant (0.5 ppt): 1
- Flavor judgment: number of panels who judged acid taste/acid smell quality the highest (0.5 ppt): 0
- N: number of panels, irritation of acid reduced to give a mild acid taste (0.5 ppt): 0
- X: number of panels, acid taste reduced but piercing odor characteristic to aldehydes unpleasant (0.5 ppt): 0
- A: number of panels, acid taste/acid smell extreme and cause irritation (1 ppb): 0
- B: number of panels, acid taste/acid smell slightly strong and slightly cause irritation (1 ppb): 0
- C: number of panels, acid taste/acid smell slightly unpleasant (1 ppb): 2
- Flavor judgment: number of panels who judged acid taste/acid smell quality the highest (1 ppb): 0
- N: number of panels, irritation of acid reduced to give a mild acid taste (1 ppb): 4
- X: number of panels, acid taste reduced but piercing odor characteristic to aldehydes unpleasant (1 ppb): 4
- A: number of panels, acid taste/acid smell extreme and cause irritation (1 ppt): 0
- B: number of panels, acid taste/acid smell slightly strong and slightly cause irritation (1 ppt): 4
- C: number of panels, acid taste/acid smell slightly unpleasant (1 ppt): 5
- Flavor judgment: number of panels who judged acid taste/acid smell quality the highest (1 ppt): 0
- N: number of panels, irritation of acid reduced to give a mild acid taste (1 ppt): 1
- X: number of panels, acid taste reduced but piercing odor characteristic to aldehydes unpleasant (1 ppt): 0
- A: number of panels, acid taste/acid smell extreme and cause irritation (5 ppt): 0
- B: number of panels, acid taste/acid smell slightly strong and slightly cause irritation (5 ppt): 1
- C: number of panels, acid taste/acid smell slightly unpleasant (5 ppt): 3
- Flavor judgment: number of panels who judged acid taste/acid smell quality the highest (5 ppt): 4
- N: number of panels, irritation of acid reduced to give a mild acid taste (5 ppt): 6
- X: number of panels, acid taste reduced but piercing odor characteristic to aldehydes unpleasant (5 ppt): 0
- A: number of panels, acid taste/acid smell extreme and cause irritation (10 ppb): 0
- B: number of panels, acid taste/acid smell slightly strong and slightly cause irritation (10 ppb): 0
- C: number of panels, acid taste/acid smell slightly unpleasant (10 ppb): 2
- Flavor judgment: number of panels who judged acid taste/acid smell quality the highest (10 ppb): 0
- N: number of panels, irritation of acid reduced to give a mild acid taste (10 ppb): 4
- X: number of panels, acid taste reduced but piercing odor characteristic to aldehydes unpleasant (10 ppb): 4
- A: number of panels, acid taste/acid smell extreme and cause irritation (20 ppt): 0
- B: number of panels, acid taste/acid smell slightly strong and slightly cause irritation (20 ppt): 0
- C: number of panels, acid taste/acid smell slightly unpleasant (20 ppt): 2
- Flavor judgment: number of panels who judged acid taste/acid smell quality the highest (20 ppt): 3
- N: number of panels, irritation of acid reduced to give a mild acid taste (20 ppt): 8
- X: number of panels, acid taste reduced but piercing odor characteristic to aldehydes unpleasant (20 ppt): 0
- A: number of panels, acid taste/acid smell extreme and cause irritation (50 ppb): 0
- B: number of panels, acid taste/acid smell slightly strong and slightly cause irritation (50 ppb): 0
- C: number of panels, acid taste/acid smell slightly unpleasant (50 ppb): 0
- Flavor judgment: number of panels who judged acid taste/acid smell quality the highest (50 ppb): 0
- N: number of panels, irritation of acid reduced to give a mild acid taste (50 ppb): 2
- X: number of panels, acid taste reduced but piercing odor characteristic to aldehydes unpleasant (50 ppb): 8
- A: number of panels, acid taste/acid smell extreme and cause irritation (100 ppt): 0
- B: number of panels, acid taste/acid smell slightly strong and slightly cause irritation (100 ppt): 1
- C: number of panels, acid taste/acid smell slightly unpleasant (100 ppt): 2
- Flavor judgment: number of panels who judged acid taste/acid smell quality the highest (100 ppt): 3
- N: number of panels, irritation of acid reduced to give a mild acid taste (100 ppt): 7
- X: number of panels, acid taste reduced but piercing odor characteristic to aldehydes unpleasant (100 ppt): 0
- A: number of panels, acid taste/acid smell extreme and cause irritation (500 ppt): 0
- B: number of panels, acid taste/acid smell slightly strong and slightly cause irritation (500 ppt): 1
- C: number of panels, acid taste/acid smell slightly unpleasant (500 ppt): 3
- Flavor judgment: number of panels who judged acid taste/acid smell quality the highest (500 ppt): 0
- N: number of panels, irritation of acid reduced to give a mild acid taste (500 ppt): 4
- X: number of panels, acid taste reduced but piercing odor characteristic to aldehydes unpleasant (500 ppt): 2
